Experimental data taken from patent US20230352114A1, “METHODS OF PROVIDING MODULATORS OF TAU AGGREGATION” (GTInvent Limited, priority 2020, published 2023).
“Also recorded” adds a separate entry of the source.

Experiments:
Tau aggregation = assay: cell-based tau aggregation assay (Rickard et al., 2017); settings: tau aggregation inhibition
Protocol: Selected or designed compounds may further be synthesised or obtained and tested for their ability to modulate Tau aggregation, for example in a cell-based aggregation assay as described in Rickard et al., 2017.
These compounds were assessed in a cell-based Tau aggregation assay. […] The substituents were designed to test the required strength of hydrogen bonds with the pocket, as well as optimal orientation for hydrophobic and pi interactions.

dGAE [1] = target: T1, dGAE (Homo sapiens, UniProt P10636); assay: sandwich ELISA epitope occlusion assay of dGAE aggregates with core region scAbs; type: biochemical; settings: dGAE with DTT, 1:5 ratio, 24 h at 37° C.; total and supernatant samples
T1 construct: Recombinant tau297-391 (dGAE) was produced and purified from; made in house; host or cells: E. coli
Excerpt: The truncated core repeat domain dGAE (297-391), is the predominant fragment that constitutes bulk of the PHF core in AD (Wischik et al, 1988). During dGAE aggregation in vitro, scAb binding regions on dGAE are ‘hidden’ or ‘occluded’ which leads to a loss of immunoreactivity in aggregation samples. Here we have shown the occlusion of binding regions in aggregated dGAE samples and the recovery of immunoreactivity in the presence of LMTM, a tau-aggregation inhibitor. For preparing the aggregates, 10 μl 10 mM DTT was added to 1000 μl 100 μM dGAE and agitated with/without LMTM (1:5 ratio) at 700 rpm for 24 h at 37° C. Following overnight agitation, one third of each sample was kept aside as ‘total’ and the rest was spun down at 16000×g for 30 min and separated into ‘supernatant’ and ‘pellet’. The pellet was then resuspended in half the original volume for further experiments. The immunoreactivities of core region specific scAbs towards dGAE aggregates formed with/without LMTM was tested using a sandwich ELISA format using a ‘E’ specific monoclonal antibody 423 mAb. […] ELISA plates were coated with 10 μg/ml 423 mAb and blocked as normal. Doubling dilutions of dGAE aggregate ‘total’, ‘supernatant’ and ‘pellet’ samples at 10 μg/ml starting concentration were added to designated wells in doubling dilutions in 1×PBS. dGAE monomer (non-aggregated) was included as assay control. […]

dGAE [2] = target: T1, dGAE; assay: protease digestion (Proteinase K / Pronase E) of assembled dGAE, SDS-PAGE; type: biochemical; settings: 100 μM dGAE, 10 mM DTT, ratios up to 1:5, 72 hours
Protocol: Protease digestion: 100 μM dGAE with 10 mM DTT in phosphate buffer (20 mM, pH 7.4), with or without MTC at ratios up to 1:5 was agitated at 700 rpm, 37° C. for 72 hours. 10 μg aliquots were digested with increasing concentrations of Proteinase K (PK), Pronase E (PE), or left untreated. The digestion was carried out at 37° C. for 1 hour then the reaction was stopped with 1 mM Pefabloc and samples were placed on ice for 5 minutes. Sample buffer without any reducing agent was added, incubated for 5 minutes at room temperature then loaded onto a gel.
Soluble or fibrils of dGAE (100 μM) in reducing conditions (10 mM DTT) were incubated with increasing concentrations of proteinase K or Pronase E then samples were run on SDS-PAGE.

[3] = clinical evidence; fold lower; cited from earlier work

T1 sequence (P10636 614-708): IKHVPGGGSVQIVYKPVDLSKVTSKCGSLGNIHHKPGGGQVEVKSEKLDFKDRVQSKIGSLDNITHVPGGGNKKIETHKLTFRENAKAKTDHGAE

SMILES	EC50 (Tau aggregation) [nM]	immunoreactivity of core region scAbs to dGAE aggregated in presence of the compound (dGAE [1])	formation of protease resistant core of dGAE (dGAE [2])	effective dose relative to minimum effective dose of the oxidized MT+ form [3] [fold]
CN(C)c1ccc2c(c1)Sc1cc(N(C)C)ccc1N2 [LMT, leuco-methylthioninium]	96	loss of immunoreactivity could be prevented	loss of protease resistance; also recorded: prevents the formation of a protease resistant core	–
CN(C)c1ccc2c(c1)Sc1cc(N(C)C)ccc1N2.CS(=O)(=O)O.CS(=O)(=O)O [LMTM, hydromethylthioninium mesylate]	–	increase in immunoreactivity; also recorded: increased binding	–	20
